Values quoted from earlier work in patent publication US20190105343A1, “Treatment of Skin Conditions and Diseases Associated with Microbial Biofilms” (Bioclenz PH LLC, priority 2016, published 2019).
Converted amounts (≈) assume the structure as drawn.

Legend:
[1] = aqueous solutions at 37° C.
[2] = system: aerobic and anaerobic gram-positive bacteria; settings: broth and biofilm cultures
[3] = system: Pseudomonas aeruginosa; settings: pH 5.0-6.0
[4] = system: Gram-negative anaerobes

Q: With `CCCCCCCCCCCC(=O)OCC(O)CO` (stereo not shown) [GML, glycerol monolaurate] as the compound, how does the solubility limit [1] read?
A: 100 µg/mL (≈ 364 µM)

Q: And the bactericidal activity [2]?
A: bactericidal

Q: And the killing [3]?
A: killed

Q: And the susceptibility [4]?
A: susceptible
